Results as given in ChEMBL document CHEMBL1201862, “PubChem BioAssay data set” (2004).
Structures can show the parent of a compound that is named as a salt. The source made the active and inactive calls.

Legend:
Hexokinase HKDC1 = molecular target: T1, Hexokinase HKDC1 (Homo sapiens, UniProt Q2TB90); assay: HKDC1 hexokinase activators, dose response, biochemical, W721R variant (AID 504730); type: functional
T1 sequence (Q2TB90 whole entry): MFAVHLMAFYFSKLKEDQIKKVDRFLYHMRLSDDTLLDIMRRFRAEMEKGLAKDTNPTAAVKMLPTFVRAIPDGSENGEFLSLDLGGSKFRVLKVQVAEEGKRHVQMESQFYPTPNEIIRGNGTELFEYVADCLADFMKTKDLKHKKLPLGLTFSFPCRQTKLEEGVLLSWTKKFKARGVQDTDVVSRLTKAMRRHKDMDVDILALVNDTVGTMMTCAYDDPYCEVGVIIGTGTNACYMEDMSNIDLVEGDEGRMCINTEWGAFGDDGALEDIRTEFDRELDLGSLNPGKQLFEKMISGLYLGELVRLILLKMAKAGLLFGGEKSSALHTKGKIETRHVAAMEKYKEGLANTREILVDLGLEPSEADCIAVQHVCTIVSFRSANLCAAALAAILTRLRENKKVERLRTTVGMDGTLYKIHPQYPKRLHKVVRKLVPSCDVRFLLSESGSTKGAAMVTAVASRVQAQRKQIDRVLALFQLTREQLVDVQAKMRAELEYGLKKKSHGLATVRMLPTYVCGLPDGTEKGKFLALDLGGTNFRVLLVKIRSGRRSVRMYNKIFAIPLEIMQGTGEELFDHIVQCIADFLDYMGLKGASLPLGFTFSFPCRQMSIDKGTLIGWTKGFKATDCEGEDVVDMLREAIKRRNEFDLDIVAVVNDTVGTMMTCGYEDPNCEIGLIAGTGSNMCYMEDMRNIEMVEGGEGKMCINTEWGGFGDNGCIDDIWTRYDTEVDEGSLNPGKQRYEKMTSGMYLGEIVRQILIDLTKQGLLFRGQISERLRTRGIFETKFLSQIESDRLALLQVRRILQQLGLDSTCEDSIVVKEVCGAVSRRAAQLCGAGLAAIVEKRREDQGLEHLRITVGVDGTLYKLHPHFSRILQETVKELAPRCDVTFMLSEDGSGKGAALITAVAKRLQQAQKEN

Hexokinase-1 = molecular target: T2, Hexokinase-1 (Homo sapiens, UniProt P19367); assay: hexokinase 1 activators, dose response, selectivity assay for HKDC1 activator project, biochemical (AID 504762); type: functional
T2 sequence (P19367 whole entry): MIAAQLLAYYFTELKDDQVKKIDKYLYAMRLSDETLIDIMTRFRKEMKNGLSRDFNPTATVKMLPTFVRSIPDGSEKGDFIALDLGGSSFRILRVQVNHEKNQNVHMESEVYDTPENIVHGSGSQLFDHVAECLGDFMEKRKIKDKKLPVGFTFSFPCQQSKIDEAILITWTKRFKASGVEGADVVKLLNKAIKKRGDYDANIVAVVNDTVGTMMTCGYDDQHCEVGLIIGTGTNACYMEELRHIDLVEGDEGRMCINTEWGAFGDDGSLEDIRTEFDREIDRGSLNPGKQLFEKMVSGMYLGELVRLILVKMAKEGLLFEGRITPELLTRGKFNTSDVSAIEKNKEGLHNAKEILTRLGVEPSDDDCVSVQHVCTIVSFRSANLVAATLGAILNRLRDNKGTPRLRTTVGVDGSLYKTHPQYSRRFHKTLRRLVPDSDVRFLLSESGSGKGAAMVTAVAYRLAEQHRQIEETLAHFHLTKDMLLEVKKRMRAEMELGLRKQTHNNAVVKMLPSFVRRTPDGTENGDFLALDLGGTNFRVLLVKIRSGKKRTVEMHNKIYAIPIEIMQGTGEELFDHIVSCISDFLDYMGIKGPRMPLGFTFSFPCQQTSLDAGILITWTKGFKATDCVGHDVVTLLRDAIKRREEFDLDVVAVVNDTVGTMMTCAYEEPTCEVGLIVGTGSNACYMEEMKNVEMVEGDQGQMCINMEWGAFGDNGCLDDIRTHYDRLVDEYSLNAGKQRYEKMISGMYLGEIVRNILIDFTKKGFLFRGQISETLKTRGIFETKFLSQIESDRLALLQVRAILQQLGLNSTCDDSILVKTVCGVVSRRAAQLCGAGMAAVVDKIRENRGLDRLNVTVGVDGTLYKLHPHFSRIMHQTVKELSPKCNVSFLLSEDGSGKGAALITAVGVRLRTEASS

Cannabinoid receptor 1 [1] = molecular target: T3, Cannabinoid receptor 1 (Homo sapiens, UniProt P21554); assay: SAR analysis of antagonists of the Cannabinoid Receptor 1 using an Image-Based Assay - Set 4. [Related pubchem assays (depositor defined):AID2013, AID2026]; type: functional
Cannabinoid receptor 1 [2] = molecular target: T3, Cannabinoid receptor 1; assay: SAR analysis of agonists of the Cannabinoid Receptor 1 using an Image-Based Assay - Set 4. [Related pubchem assays (depositor defined):AID2013, AID2026]; type: functional
[3] = molecular target: T4, G-protein coupled receptor 35 (Homo sapiens, UniProt Q9HC97); assay: SAR analysis of Agonists of the GPR35 Receptor using an Image-Based Assay - Set 4. [Related pubchem assays (depositor defined):AID2013, AID2026]; type: functional
[4] = molecular target: G-protein coupled receptor 55 (Homo sapiens, UniProt Q9Y2T6); assay: SAR Analysis of Selective Antagonists of GPR55 using an Image-Based Assay - Set 4. [Related pubchem assays (depositor defined):AID2013, AID2026]; type: functional;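 note: antagonism of response to 5 µM lysophosphatidylinositol agonist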
[5] = molecular target: T4, G-protein coupled receptor 35; assay: SAR analysis of Antagonists of the GPR35 Receptor using an Image-Based Assay - Set 6. [Related pubchem assays (depositor defined):AID2013, AID2026]; type: functional
Cannabinoid receptor 2 [6] = molecular target: T5, Cannabinoid receptor 2 (Homo sapiens, UniProt P34972); assay: SAR analysis of antagonists of the Cannabinoid Receptor 2 using an Image-Based Assay - Set 3. [Related pubchem assays (depositor defined):AID2013, AID2026]; type: functional
Cannabinoid receptor 2 [7] = molecular target: T5, Cannabinoid receptor 2; assay: SAR analysis of agonists of the Cannabinoid Receptor 2 using an Image-Based Assay - Set 3. [Related pubchem assays (depositor defined):AID2013, AID2026]; type: functional
[8] = cytotoxicity in HEK-293T NF-kB-Luc cells, dose response, cytotoxicity control for B/T-cell NF-kB inhibitor project, cell-based, uHTS hits (AID 489019); type: functional;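 note: IC50 reflects cytotoxicity as loss of cell viability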
[9] = microbe, parasite or virus in culture; type: functional; details: Mycobacterium tuberculosis
BJ = assay: cytotoxicity toward Ras-transformed BJeLR fibroblasts, dose response, cell-based, alamar blue fluorescence, cherrypicked samples (AID 2631); type: functional; details: Homo sapiens;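 note: confirmatory dose-response assay in RAS-dependent BJ fibroblasts engineered with TERT, LT and ST, with cytotoxicity read by fluorescence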
[10] = molecular target: Glucose-6-phosphate 1-dehydrogenase (Homo sapiens, UniProt P11413); assay: human G6PD enzyme inhibitors, dose response, selectivity assay for P. falciparum G6PD inhibitor project, biochemical, fluorescence (AID 504792); type: functional
[11] = molecular target: T6, Mannose-6-phosphate isomerase (Homo sapiens, UniProt P34949); assay: human PMI inhibitors, high substrate, primary screen, biochemical, fluorescence intensity, high mannose 6-phosphate (AID 1220)
T6 sequence (P34949 whole entry): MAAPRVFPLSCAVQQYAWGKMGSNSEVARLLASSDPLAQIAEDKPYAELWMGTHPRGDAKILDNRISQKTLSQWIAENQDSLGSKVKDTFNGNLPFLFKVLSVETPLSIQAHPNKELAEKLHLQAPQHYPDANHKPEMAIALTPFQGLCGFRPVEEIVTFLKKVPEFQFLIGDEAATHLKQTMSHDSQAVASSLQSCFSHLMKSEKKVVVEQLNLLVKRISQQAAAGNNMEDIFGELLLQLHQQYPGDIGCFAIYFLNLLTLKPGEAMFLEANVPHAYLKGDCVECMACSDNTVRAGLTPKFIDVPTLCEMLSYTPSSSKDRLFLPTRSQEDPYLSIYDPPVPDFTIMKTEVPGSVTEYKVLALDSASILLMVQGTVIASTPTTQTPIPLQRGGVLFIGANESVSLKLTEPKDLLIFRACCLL

T3 sequence (P21554 whole entry): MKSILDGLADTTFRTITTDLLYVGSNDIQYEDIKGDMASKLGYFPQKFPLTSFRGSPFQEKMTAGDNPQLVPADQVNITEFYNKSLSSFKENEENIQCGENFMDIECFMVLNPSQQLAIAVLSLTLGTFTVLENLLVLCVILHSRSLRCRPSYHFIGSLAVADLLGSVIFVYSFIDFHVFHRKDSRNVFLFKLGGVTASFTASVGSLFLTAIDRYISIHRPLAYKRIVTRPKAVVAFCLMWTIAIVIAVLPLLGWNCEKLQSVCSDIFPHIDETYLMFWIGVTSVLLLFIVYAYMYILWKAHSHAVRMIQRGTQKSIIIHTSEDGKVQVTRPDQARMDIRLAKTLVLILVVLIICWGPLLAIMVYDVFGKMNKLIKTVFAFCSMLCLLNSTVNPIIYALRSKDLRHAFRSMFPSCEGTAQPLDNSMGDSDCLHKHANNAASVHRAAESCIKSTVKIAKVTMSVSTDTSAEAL
T4 sequence (Q9HC97 whole entry): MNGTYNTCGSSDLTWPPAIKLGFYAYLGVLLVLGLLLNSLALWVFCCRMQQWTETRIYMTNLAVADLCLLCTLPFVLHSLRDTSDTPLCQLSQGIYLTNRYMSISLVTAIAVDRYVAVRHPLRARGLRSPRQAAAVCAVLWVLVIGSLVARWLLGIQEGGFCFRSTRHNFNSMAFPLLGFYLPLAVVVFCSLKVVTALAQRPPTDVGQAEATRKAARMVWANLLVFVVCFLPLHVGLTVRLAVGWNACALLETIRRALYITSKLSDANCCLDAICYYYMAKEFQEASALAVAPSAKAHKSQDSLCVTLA
T5 sequence (P34972 whole entry): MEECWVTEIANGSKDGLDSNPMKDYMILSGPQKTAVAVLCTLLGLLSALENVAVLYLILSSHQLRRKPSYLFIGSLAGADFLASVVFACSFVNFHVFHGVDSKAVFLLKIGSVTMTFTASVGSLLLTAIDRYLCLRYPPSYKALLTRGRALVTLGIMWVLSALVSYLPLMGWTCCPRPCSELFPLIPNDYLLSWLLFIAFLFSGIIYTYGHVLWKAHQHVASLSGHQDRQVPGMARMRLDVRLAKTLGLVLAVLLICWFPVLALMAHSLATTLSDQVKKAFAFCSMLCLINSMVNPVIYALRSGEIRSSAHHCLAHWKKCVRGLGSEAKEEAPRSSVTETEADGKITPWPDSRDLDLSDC
Chain of Glucose-6-phosphate 1-dehydrogenase (P11413 whole entry): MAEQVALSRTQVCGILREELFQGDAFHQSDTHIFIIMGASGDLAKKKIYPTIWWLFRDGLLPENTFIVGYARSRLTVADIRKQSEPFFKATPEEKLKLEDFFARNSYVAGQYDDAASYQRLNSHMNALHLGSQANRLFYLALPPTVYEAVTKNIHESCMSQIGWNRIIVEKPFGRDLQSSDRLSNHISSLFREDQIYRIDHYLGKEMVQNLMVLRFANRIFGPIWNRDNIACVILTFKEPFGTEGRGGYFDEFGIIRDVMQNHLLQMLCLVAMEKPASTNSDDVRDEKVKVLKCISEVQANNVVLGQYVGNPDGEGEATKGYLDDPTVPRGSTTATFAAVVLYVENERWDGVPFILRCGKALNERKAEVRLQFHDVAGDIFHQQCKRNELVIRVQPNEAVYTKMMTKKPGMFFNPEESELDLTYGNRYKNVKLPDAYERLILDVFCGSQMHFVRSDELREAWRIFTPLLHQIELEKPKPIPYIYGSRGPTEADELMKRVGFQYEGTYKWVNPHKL
Chain of G-protein coupled receptor 55 (Q9Y2T6 whole entry): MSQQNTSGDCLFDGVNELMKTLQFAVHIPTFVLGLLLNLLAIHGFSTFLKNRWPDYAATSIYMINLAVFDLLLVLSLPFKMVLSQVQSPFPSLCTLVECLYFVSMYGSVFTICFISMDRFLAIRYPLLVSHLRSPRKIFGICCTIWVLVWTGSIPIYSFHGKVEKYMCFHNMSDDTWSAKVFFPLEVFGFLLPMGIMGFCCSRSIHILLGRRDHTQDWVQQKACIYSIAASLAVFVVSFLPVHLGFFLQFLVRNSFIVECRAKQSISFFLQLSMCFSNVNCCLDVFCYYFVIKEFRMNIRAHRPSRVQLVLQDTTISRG

COc1ccc(NC2=NN=C(c3ccc4c(c3)OCCO4)CS2)cc1
EC50 (Hexokinase HKDC1): 25 µM (inactive)
EC50 (Hexokinase-1): 23.9 µM (inactive)

COc1ccc(-n2cc3c(-c4ccc(-c5ccccc5)cc4)nnc(C)c3n2)cc1
IC50 (Cannabinoid receptor 1 [1]): 1.04 µM (active)
EC50 (Cannabinoid receptor 1 [2]): > 32 µM (inactive)
EC50 [3]: > 32 µM (inactive)
IC50 [4]: > 32 µM (inactive)
IC50 [5]: 4.74 µM (active)
IC50 (Cannabinoid receptor 2 [6]): 2.09 µM (active)
EC50 (Cannabinoid receptor 2 [7]): > 32 µM (inactive)

COc1cccc2c1C(=O)c1c(O)c3c(c(O)c1C2=O)C[C@@](O)(C(=O)CO)C[C@@H]3O[C@H]1C[C@H](N)[C@@H](O)[C@H](C)O1 [EPIRUBICIN HYDROCHLORIDE]
IC50 [8]: > 80 µM (inactive)
CC50 [9]: 18.7 µM (active)
EC50 (BJ): < 0.104 µM (active)

CCn1c2ccccc2c2nc3cc(S(=O)(=O)N4CCOCC4)ccc3nc21
EC50 (Hexokinase HKDC1): > 80 µM (inactive)
IC50 [10]: > 80 µM (inactive)
EC50 (Hexokinase-1): > 80 µM (inactive)
IC50 [11]: 20 µM (active)
